Results from the supplement of paper PMC10733146.

What was measured:
Assay in all cases: viability relative to DMSO control (fraction); higher = less drug effect (more viable cells)
Details in all cases: 48 h
[1] = test system: primary ALL patient cells (S088)
Summary of the method: (§1)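 Viability was measured as CellTiter-Glo luminescence relative to the median of 16 inner DMSO wells. Primary mononuclear tumour cells, fresh or cryopreserved, were Ficoll-isolated from blood or bone marrow or taken from processed lymph node. They were seeded at 4 × 10^4 cells per well into 384-well plates holding pre-plated compounds at five concentrations, one well each, and kept in RPMI-1640 with penicillin/streptomycin, L-glutamine and human serum at 37 °C and 5% CO2 for 48 h.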

[2] = test system: primary MCL patient cells (S063)
Summary of the method: as §1

[3] = test system: primary DLBCL patient cells (S082)
Summary of the method: as §1

[4] = test system: primary AML patient cells (S021)
Summary of the method: as §1

[5] = test system: primary DLBCL patient cells (S049)
Summary of the method: as §1

[6] = test system: primary AML patient cells (S060)
Summary of the method: as §1

[7] = test system: primary AML patient cells (S055)
Summary of the method: as §1

[8] = test system: primary AML patient cells (S006)
Summary of the method: as §1

[9] = test system: primary AML patient cells (S011)
Summary of the method: as §1

[10] = test system: primary MCL patient cells (S041)
Summary of the method: as §1

[11] = test system: primary B-PLL patient cells (S016)
Summary of the method: as §1

[12] = test system: primary FL patient cells (S087)
Summary of the method: as §1

[13] = test system: primary T-PLL patient cells (S008)
Summary of the method: as §1

[14] = test system: primary AML patient cells (S081)
Summary of the method: as §1

[15] = test system: primary DLBCL patient cells (S076)
Summary of the method: as §1

[16] = test system: primary T-NHL patient cells (S058)
Summary of the method: as §1

[17] = test system: primary AML patient cells (S009)
Summary of the method: as §1

C[C@@H](Oc1cc(-c2cnn(C3CCNCC3)c2)cnc1N)c1c(Cl)ccc(F)c1Cl [Crizotinib]
viability ([1]; 0.024 µM): 0.93 | viability ([1]; 0.12 µM): 0.956 | viability ([1]; 0.6 µM): 0.798 | viability ([1]; 3 µM): 0.568 | viability ([1]; 15 µM): 0.0811 | viability ([2]; 0.024 µM): 0.942 | viability ([2]; 0.12 µM): 1.03 | viability ([2]; 0.6 µM): 1 | viability ([2]; 3 µM): 0.896 | viability ([2]; 15 µM): 0.254 | viability ([3]; 0.024 µM): 0.975 | viability ([3]; 0.12 µM): 0.989 | viability ([3]; 0.6 µM): 1.01 | viability ([3]; 3 µM): 0.916 | viability ([3]; 15 µM): 0.36 | viability ([4]; 0.024 µM): 1.06 | viability ([4]; 0.12 µM): 1.1 | viability ([4]; 0.6 µM): 1.1 | viability ([4]; 3 µM): 0.831 | viability ([4]; 15 µM): 0.345 | viability ([5]; 0.024 µM): 1.04 | viability ([5]; 0.12 µM): 1.08 | viability ([5]; 0.6 µM): 1.04 | viability ([5]; 3 µM): 0.98 | viability ([5]; 15 µM): 0.0442 | viability ([6]; 0.024 µM): 0.926 | viability ([6]; 0.12 µM): 0.931 | viability ([6]; 0.6 µM): 0.931 | viability ([6]; 3 µM): 0.841 | viability ([6]; 15 µM): 0.445 | viability ([7]; 0.024 µM): 0.948 | viability ([7]; 0.12 µM): 0.954 | viability ([7]; 0.6 µM): 0.999 | viability ([7]; 3 µM): 0.683 | viability ([7]; 15 µM): 0.524 | viability ([8]; 0.024 µM): 0.944 | viability ([8]; 0.12 µM): 0.926 | viability ([8]; 0.6 µM): 0.695 | viability ([8]; 3 µM): 0.491 | viability ([8]; 15 µM): 0.18 | viability ([9]; 0.024 µM): 0.996 | viability ([9]; 0.12 µM): 1.04 | viability ([9]; 0.6 µM): 0.822 | viability ([9]; 3 µM): 0.358 | viability ([9]; 15 µM): 0.0468 | viability ([10]; 0.024 µM): 0.97 | viability ([10]; 0.12 µM): 1 | viability ([10]; 0.6 µM): 0.879 | viability ([10]; 3 µM): 0.79 | viability ([10]; 15 µM): 0.221 | viability ([11]; 0.024 µM): 0.971 | viability ([11]; 0.12 µM): 0.944 | viability ([11]; 0.6 µM): 0.874 | viability ([11]; 3 µM): 0.88 | viability ([11]; 15 µM): 0.255 | viability ([12]; 0.024 µM): 0.979 | viability ([12]; 0.12 µM): 1.03 | viability ([12]; 0.6 µM): 0.999 | viability ([12]; 3 µM): 0.821 | viability ([12]; 15 µM): 0.111 | viability ([13]; 0.024 µM): 0.983 | viability ([13]; 0.12 µM): 1.02 | viability ([13]; 0.6 µM): 0.969 | viability ([13]; 3 µM): 0.955 | viability ([13]; 15 µM): 0.655 | viability ([14]; 0.024 µM): 0.9 | viability ([14]; 0.12 µM): 0.922 | viability ([14]; 0.6 µM): 0.895 | viability ([14]; 3 µM): 0.85 | viability ([14]; 15 µM): 0.386 | viability ([15]; 0.024 µM): 0.938 | viability ([15]; 0.12 µM): 1.03 | viability ([15]; 0.6 µM): 0.999 | viability ([15]; 3 µM): 0.77 | viability ([15]; 15 µM): 0.17 | viability ([16]; 0.024 µM): 0.908 | viability ([16]; 0.12 µM): 1.01 | viability ([16]; 0.6 µM): 0.903 | viability ([16]; 3 µM): 0.812 | viability ([16]; 15 µM): 0.335 | viability ([17]; 0.024 µM): 0.984 | viability ([17]; 0.12 µM): 0.895 | viability ([17]; 0.6 µM): 0.761 | viability ([17]; 3 µM): 0.57 | viability ([17]; 15 µM): 0.147
